Test results from patent US10344019B2 (priority 2010, dated 2019).
Where two headings read alike, the source gives them in different places.

Tests used:
Type in all cases: cell-based
[1] = tested on: HCV 1a RLuc cells (dicistronic genotype 1a H77 replicon, RLuc reporter); test: microbe, parasite or virus in culture; details: read-out: 1a
Method in brief: (§1)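 Replicons used: genotype 1b Con1, 1a H77, 2a JFH-1, and a 2a JFH-1 chimera with J6-strain NS5A (M31 present), all dicistronic.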

[2] = tested on: HCV 1b RLuc cells (dicistronic genotype 1b Con1 replicon, RLuc reporter); test: microbe, parasite or virus in culture
Method in brief: as §1

[3] = tested on: HCV 2a JFH-1 Rluc cells (dicistronic genotype 2a JFH-1 replicon, RLuc reporter); test: microbe, parasite or virus in culture; details: read-out: 2a JFH
Method in brief: as §1

[4] = tested on: HCV 2b Rluc cells (NS5A chimeric genotype 2a JFH-1 replicon with genotype 2b MD2b-1 NS5A gene, M31 present); test: microbe, parasite or virus in culture; details: Hepatitis C virus, read-out: 2b
Method in brief: (§2)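 Replicon cells stably carrying the listed RLuc-encoding dicistronic replicons were seeded and treated with DMSO serial dilutions of compound (10 mM stocks) diluted into culture medium. After 72 h, cells were lysed and Renilla luciferase activity measured. EC50 was derived by non-linear regression.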

[5] = tested on: HCV 3a RLuc cells (NS5A chimeric genotype 1b Con1 replicon with consensus genotype 3a NS5A gene); test: microbe, parasite or virus in culture
Method in brief: as §2

[6] = tested on: HCV 4a Rluc cells (NS5A chimeric genotype 1b Con1 replicon with genotype 4a NS5A gene); test: microbe, parasite or virus in culture; details: Hepatitis C virus, read-out: 4a
Method in brief: as §2

[7] = tested on: HCV 2a Rluc cells (NS5A chimeric genotype 2a JFH-1 replicon with genotype 2a J6 strain NS5A gene, M31 present); test: HCV replicon reporter assay, genotype 2a J6 (M31 present); details: Hepatitis C virus, read-out: 2a J6
Method in brief: as §1

[8] = Hepatitis C virus, read-out: 1b (nM)
[9] = Hepatitis C virus, genotype 1a replicon
[10] = Hepatitis C virus, genotype 2a JFH-1 replicon
[11] = Hepatitis C virus, read-out: 3a, genotype 3a replicon
[12] = Hepatitis C virus, genotype 1a H77 RLuc replicon
[13] = Hepatitis C virus, genotype 2a JFH-1 RLuc replicon
[14] = Hepatitis C virus, read-out: 3a, genotype 3a NS5A chimeric replicon

COC(=O)N[C@H](C(=O)N1CCC[C@H]1c1ncc(-c2ccc3cc(-c4ccc(-c5cnc([C@@H]6CC(F)(F)CN6C(=O)[C@H](NC(=O)OC)c6ccccc6)[nH]5)cc4)ccc3c2)[nH]1)C(C)C [Example 260]
EC50 ([1]; Hepatitis C virus, genotype 1a H77 replicon, RLuc reporter): 0.001 to 0.999 nM
EC50 [2, 8]: 0.004 nM
EC50 ([3]; Hepatitis C virus, genotype 2a JFH-1 replicon, RLuc reporter): 0.001 to 0.999 nM
EC50 [4]: > 44 nM
EC50 ([5]; Hepatitis C virus, read-out: 3a, genotype 3a NS5A chimeric 1b Con1 replicon): 0.001 to 0.99 nM
EC50 [6]: 0.001 to 0.99 nM
EC50 [7]: > 44 nM

COC(=O)N[C@H](C(=O)N1CCC[C@H]1c1ncc(-c2ccc3cc(-c4ccc(-c5cnc([C@@H]6CCCN6C(=O)[C@H](NC(=O)OC)c6ccccc6)[nH]5)cc4)ccc3c2)[nH]1)C(C)C [Example 26]
EC50 ([1]; Table 2, genotype 1a H77 replicon, 72 hours): 0.001 to 0.999 nM
EC50 ([2]; read-out: 1b): 0.012 nM
EC50 ([3]; Table 2, genotype 2a JFH-1 replicon, 72 hours): 0.001 to 0.999 nM
EC50 [4]: 1 to 44 nM
EC50 ([5]; read-out: 3a, Table 2, genotype 3a NS5A chimeric replicon): 0.001 to 0.99 nM
EC50 [6]: 0.001 to 0.99 nM
EC50 [7]: 1 to 44 nM

COC1CN(C(C(=O)N2CCC[C@H]2c2ncc(-c3cc4c5c(c3)OCc3cc(-c6cnc([C@@H]7CCCN7C(=O)C(c7ccccc7)N7CC(OC)C7)[nH]6)cc(c3-5)OC4)[nH]2)c2ccccc2)C1 (some centres unmarked) [Example 444]
EC50 [1, 9]: 1 to 44 nM
EC50 [2, 8]: 1.76 nM
EC50 [3, 10]: 0.001 to 0.999 nM
EC50 [4]: 1 to 44 nM
EC50 [5, 11]: 0.001 to 0.99 nM
EC50 [6]: 1 to 4.99 nM
EC50 [7]: 1 to 44 nM

COC(=O)N[C@H](C(=O)N1CCC[C@H]1c1nc2ccc3cc(-c4ccc5c(ccc6nc([C@@H]7CC8(CN7C(=O)[C@@H](NC(=O)OC)C(C)C)OCCO8)[nH]c65)c4)ccc3c2[nH]1)C(C)C [Example 363]
EC50 [1, 9]: 0.001 to 0.999 nM
EC50 [2, 8]: 0.025 nM
EC50 [3, 10]: 0.001 to 0.999 nM
EC50 [4]: > 44 nM
EC50 [5, 11]: 1 to 4.99 nM
EC50 [6]: 0.001 to 0.99 nM
EC50 [7]: 1 to 44 nM

COC[C@H]1C[C@@H](c2ncc(-c3ccc(-c4ccc5c(c4)OCc4nc([C@@H]6CCCN6C(=O)[C@@H](NC(=O)OC)C(C)C)[nH]c4-5)cc3)[nH]2)N(C(=O)[C@@H](NC(=O)OC)C(C)C)C1 [Example 458]
EC50 [1, 9]: 0.001 to 0.999 nM
EC50 [2, 8]: 0.085 nM
EC50 [3, 10]: 0.001 to 0.999 nM
EC50 [4]: > 44 nM
EC50 [5, 11]: 1 to 4.99 nM
EC50 [6]: 0.001 to 0.99 nM
EC50 [7]: > 44 nM

COC[C@H]1CC[C@@H](c2ncc(-c3cc4c5c(c3)OCc3cc(-c6cnc([C@@H]7CC[C@H](COC)N7C(=O)[C@@H](NC(=O)OC)C(C)C)[nH]6)cc(c3-5)OC4)[nH]2)N1C(=O)[C@@H](NC(=O)OC)C(C)C [Example 578]
EC50 [1, 12]: 0.001 to 0.999 nM
EC50 [2, 8]: 0.022 nM
EC50 [3, 13]: 0.001 to 0.999 nM
EC50 [4]: > 44 nM
EC50 [5, 14]: 0.001 to 0.99 nM
EC50 [6]: 0.001 to 0.99 nM
EC50 [7]: > 44 nM

COC(=O)N[C@H](C(=O)N1CCC[C@H]1c1ncc(-c2ccc(-c3ccc4c(ccc5nc([C@@H]6[C@H]7CC[C@H](C7)N6C(=O)[C@H](NC(=O)OC)c6ccccc6)[nH]c54)c3)cc2)[nH]1)C(C)C [Example 410]
EC50 [1, 9]: 0.001 to 0.999 nM
EC50 [2, 8]: 0.018 nM
EC50 [3, 10]: 0.001 to 0.999 nM
EC50 [4]: > 44 nM
EC50 [5, 11]: 0.001 to 0.99 nM
EC50 [6]: 0.001 to 0.99 nM
EC50 [7]: 1 to 44 nM

COC(=O)N[C@H](C(=O)N1CCC[C@H]1c1ncc(-c2ccc3c4c(ccc3c2)-c2ccc(-c3cnc([C@@H]5CCCN5C(=O)[C@@H](NC(=O)OC)C5CCOCC5)[nH]3)cc2CO4)[nH]1)C(C)C [Example 8]
EC50 ([1]; Hepatitis C virus, 72 h, Table 1, genotype 1a H77 replicon, 72 hours): 0.001 to 0.999 nM
EC50 ([2]; Hepatitis C virus, 72 h, read-out: 1b (nM)): 0.006 nM
EC50 ([3]; Hepatitis C virus, 72 h, Table 1, genotype 2a JFH-1 replicon, 72 hours): 0.001 to 0.999 nM
EC50 [4]: > 44 nM
EC50 ([5]; Hepatitis C virus, read-out: 3a, Table 1, genotype 3a NS5A chimeric replicon): 1 to 4.99 nM
EC50 [6]: 0.001 to 0.99 nM
EC50 [7]: > 44 nM

COC(=O)N[C@H](C(=O)N1CCC[C@H]1c1nc2ccc3cc(-c4ccc5c(ccc6nc([C@@H]7C[C@@H]8CCC[C@@H]8N7C(=O)[C@@H](NC(=O)OC)C(C)C)[nH]c65)c4)ccc3c2[nH]1)C(C)C [Example 428]
EC50 [1, 9]: 0.001 to 0.999 nM
EC50 [2, 8]: 0.011 nM
EC50 [3, 10]: 0.001 to 0.999 nM
EC50 [4]: 1 to 44 nM
EC50 [5, 11]: 0.001 to 0.99 nM
EC50 [6]: 0.001 to 0.99 nM
EC50 [7]: 0.001 to 0.999 nM

COC[C@H]1C[C@@H](c2nc3ccc4cc(-c5ccc6c(ccc7nc([C@@H]8CCCN8C(=O)[C@@H](NC(=O)OC)C(C)C)[nH]c76)c5)ccc4c3[nH]2)N(C(=O)[C@H](NC(=O)C2CC2)c2ccccc2)C1 [Example 508]
EC50 [1, 12]: 0.001 to 0.999 nM
EC50 [2, 8]: 0.026 nM
EC50 [3, 13]: 0.001 to 0.999 nM
EC50 [4]: 0.001 to 0.999 nM
EC50 [5, 14]: 0.001 to 0.99 nM
EC50 [6]: 0.001 to 0.99 nM
EC50 [7]: 0.001 to 0.999 nM

COC(=O)N[C@H](C(=O)N1CC2(C[C@H]1c1nc3ccc4cc(-c5ccc6c(ccc7nc([C@@H]8C[C@H]9C[C@H]9N8C(=O)[C@H](NC(=O)OC)c8ccccc8)[nH]c76)c5)ccc4c3[nH]1)OCCO2)C(C)C [Example 356]
EC50 [1, 9]: 0.001 to 0.999 nM
EC50 [2, 8]: 0.022 nM
EC50 [3, 10]: 0.001 to 0.999 nM
EC50 [4]: 0.001 to 0.999 nM
EC50 [5, 11]: 0.001 to 0.99 nM
EC50 [6]: 0.001 to 0.99 nM
EC50 [7]: 0.001 to 0.999 nM

CN1CCN(C(=O)N[C@@H](C(=O)N2CCC[C@H]2c2ncc(-c3cc4c5c(c3)OCc3cc(-c6cnc([C@@H]7CCCN7C(=O)[C@H](NC(=O)N7CCN(C)CC7)c7ccccc7)[nH]6)cc(c3-5)OC4)[nH]2)c2ccccc2)CC1 [Example 464]
EC50 [1, 9]: > 44 nM
EC50 [3, 10]: 1 to 44 nM
EC50 [4]: > 44 nM
EC50 [5, 11]: 1 to 4.99 nM
EC50 [6]: > 5 nM
EC50 [7]: 1 to 44 nM

CC[C@H](C)[C@H](NC(=O)OC)C(=O)N1C[C@@H](COC)C[C@H]1c1ncc(-c2ccc3c(c2)COc2cc4c(ccc5nc([C@@H]6C[C@H](COC)CN6C(=O)[C@@H](NC(=O)OC)[C@@H](C)CC)[nH]c54)cc2-3)[nH]1 [Example 580]
EC50 [1, 12]: 0.001 to 0.999 nM
EC50 [3, 13]: 0.001 to 0.999 nM
EC50 [4]: 0.001 to 0.999 nM
EC50 [5, 14]: 0.001 to 0.99 nM
EC50 [6]: 0.001 to 0.99 nM
EC50 [7]: 0.001 to 0.999 nM

O=C([C@H](Nc1ncccn1)c1ccccc1)N1CCC[C@H]1c1ncc(-c2cc3c4c(c2)OCc2cc(-c5cnc([C@@H]6CCCN6C(=O)[C@H](Nc6ncccn6)c6ccccc6)[nH]5)cc(c2-4)OC3)[nH]1 [Example 463]
EC50 [1, 9]: 1 to 44 nM
EC50 [3, 10]: 1 to 44 nM
EC50 [4]: > 44 nM
EC50 [5, 11]: 1 to 4.99 nM
EC50 [6]: > 5 nM
EC50 [7]: > 44 nM

COC[C@H]1C[C@@H](c2ncc(-c3ccc(-c4ccc(-c5cnc([C@@H]6C[C@H](C)CN6C(=O)[C@H](NC(=O)C6CC6)c6ccccc6)[nH]5)cc4)cc3)[nH]2)N(C(=O)[C@@H](NC(=O)OC)C(C)C)C1 [Example 557]
EC50 [1, 12]: 0.001 to 0.999 nM
EC50 [2, 8]: 0.028 nM
EC50 [3, 13]: 0.001 to 0.999 nM
EC50 [4]: 0.001 to 0.999 nM
EC50 [6]: 0.001 to 0.99 nM
EC50 [7]: 0.001 to 0.999 nM

CN(C)CCC(=O)N[C@@H](C(=O)N1CCC[C@H]1c1ncc(-c2cc3c4c(c2)OCc2cc(-c5cnc([C@@H]6CCCN6C(=O)[C@H](NC(=O)CCN(C)C)c6ccccc6)[nH]5)cc(c2-4)OC3)[nH]1)c1ccccc1 [Example 467]
EC50 [1, 9]: > 44 nM
EC50 [3, 10]: > 44 nM
EC50 [4]: > 44 nM
EC50 [5, 11]: > 5 nM
EC50 [6]: > 5 nM
EC50 [7]: > 44 nM

CC[C@H](C)[C@H](NC(=O)OC)C(=O)N1[C@@H]2C[C@@H]2C[C@H]1c1nc2ccc3cc(-c4ccc5c(ccc6nc([C@@H]7C[C@H](COC)CN7C(=O)[C@H](NC(=O)OC)c7ccccc7)[nH]c65)c4)ccc3c2[nH]1 [Example 529]
EC50 [1, 12]: 0.001 to 0.999 nM
EC50 [2, 8]: 0.013 nM
EC50 [3, 13]: 0.001 to 0.999 nM
EC50 [4]: 0.001 to 0.999 nM
EC50 [6]: 0.001 to 0.99 nM
EC50 [7]: 0.001 to 0.999 nM

COC(=O)N[C@H](C(=O)N1CCC[C@H]1c1ncc(-c2cc3c4c(c2)OCc2cc(-c5cnc([C@@H]6CCCN6C(=O)[C@H](NC(=O)C6CC6)c6ccccc6)[nH]5)cc(c2-4)OC3)[nH]1)C(C)C [Example 520]
EC50 [1, 12]: 0.001 to 0.999 nM
EC50 [2, 8]: 0.033 nM
EC50 [3, 13]: 0.001 to 0.999 nM
EC50 [4]: 0.001 to 0.999 nM
EC50 [6]: 0.001 to 0.99 nM
EC50 [7]: 0.001 to 0.999 nM
